ChEMBL document CHEMBL4190295, “One-pot three steps cascade synthesis of novel isoandrographolide analogues and their cytotoxic activity” (Eur J Med Chem, 2017)

Experiments:
Format in all cases: functional, cell-based
HT-29 = assay: Cytotoxicity against human HT-29 cells assessed as reduction in cell viability by SRB assay
P388 = assay: Cytotoxicity against mouse P388 cells assessed as reduction in cell viability by SRB assay
[1] = Cytotoxicity against rat ASK cells assessed as reduction in cell viability by SRB assay
A549 = assay: Cytotoxicity against human A549 cells assessed as reduction in cell viability by SRB assay
KB = assay: Cytotoxicity against human KB cells assessed as reduction in cell viability by SRB assay
MCF7 = assay: Cytotoxicity against human MCF7 cells assessed as reduction in cell viability by SRB assay

| Compound | IC50 (HT-29) [µM] | IC50 (P388) [µM] | IC50 [1] [µM] | IC50 (A549) [µM] | IC50 (KB) [µM] | IC50 (MCF7) [µM] |
| --- | --- | --- | --- | --- | --- | --- |
| CC(=O)OC[C@@]1(C)[C@H]2CC[C@]3(CNc4ccccc4F)O[C@H](C4=CCOC4=O)C[C@H]3[C@]2(C)CC[C@H]1OC(C)=O | 6.5 | 7.5 | 27.8 | 8.45 | 26.5 | 11.8 |
| CC(=O)O[C@@H]1CC[C@]2(C)[C@H](CC[C@]3(CNc4ccc(Br)cc4)O[C@H](C4=CCOC4=O)C[C@H]32)[C@]1(C)CO[Si](C)(C)C(C)(C)C | 27.7 | 6.39 | 7.35 | 15 | 25.7 | 12.9 |
| CC(=O)O[C@@H]1CC[C@]2(C)[C@H](CC[C@]3(CNc4ccccc4F)O[C@H](C4=CCOC4=O)C[C@H]32)[C@]1(C)CO[Si](C(C)C)(C(C)C)C(C)C | 30.2 | 21.4 | 8.05 | 21 | 30.8 | 15.3 |
| CC(=O)O[C@@H]1CC[C@]2(C)[C@H](CC[C@]3(CNc4ccc(Br)cc4)O[C@H](C4=CCOC4=O)C[C@H]32)[C@]1(C)CO[Si](c1ccccc1)(c1ccccc1)C(C)(C)C | > 50 | 48.3 | > 50 | 47.8 | > 50 | > 50 |
| CC(=O)O[C@@H]1CC[C@]2(C)[C@H](CC[C@]3(CNc4ccccc4)O[C@H](C4=CCOC4=O)C[C@H]32)[C@]1(C)CO[Si](C(C)C)(C(C)C)C(C)C | 17.5 | 6.54 | 6.1 | 9.43 | 18.8 | 8.33 |
| CC(=O)OC[C@@]1(C)[C@H]2CC[C@]3(CNc4cccc(F)c4)O[C@H](C4=CCOC4=O)C[C@H]3[C@]2(C)CC[C@H]1OC(C)=O | 5.87 | 6.85 | 22.3 | 6.52 | 20.8 | 7.41 |
| CC(=O)O[C@@H]1CC[C@]2(C)[C@H](CC[C@]3(CNc4cccc(F)c4)O[C@H](C4=CCOC4=O)C[C@H]32)[C@]1(C)COC(c1ccccc1)(c1ccccc1)c1ccccc1 | > 50 | > 50 | > 50 | > 50 | > 50 | > 50 |
| CC(=O)O[C@@H]1CC[C@]2(C)[C@H](CC[C@]3(CNc4ccc(Br)cc4)O[C@H](C4=CCOC4=O)C[C@H]32)[C@]1(C)COC(c1ccccc1)(c1ccccc1)c1ccccc1 | > 50 | > 50 | > 50 | > 50 | > 50 | > 50 |
| CC(=O)O[C@@H]1CC[C@]2(C)[C@H](CC[C@]3(CNc4cccc(F)c4)O[C@H](C4=CCOC4=O)C[C@H]32)[C@]1(C)CO[Si](C)(C)C(C)(C)C | 26.2 | 6.44 | 6.1 | 21.5 | 27.4 | 8.64 |
| COc1ccc(NC[C@]23CC[C@@H]4[C@](C)(CO[Si](c5ccccc5)(c5ccccc5)C(C)(C)C)[C@H](OC(C)=O)CC[C@@]4(C)[C@@H]2C[C@@H](C2=CCOC2=O)O3)cc1OC | > 50 | 27.5 | 9.37 | 48.6 | > 50 | 35.8 |
| CC(=O)O[C@@H]1CC[C@]2(C)[C@H](CC[C@]3(CNc4ccccc4)O[C@H](C4=CCOC4=O)C[C@H]32)[C@]1(C)COC(c1ccccc1)(c1ccccc1)c1ccccc1 | > 50 | > 50 | 29.1 | > 50 | > 50 | > 50 |
| COc1ccc(NC[C@]23CC[C@@H]4[C@](C)(COC(C)=O)[C@H](OC(C)=O)CC[C@@]4(C)[C@@H]2C[C@@H](C2=CCOC2=O)O3)cc1OC | 24.1 | 28.8 | > 50 | > 50 | > 50 | > 50 |
| CC(=O)O[C@@H]1CC[C@]2(C)[C@H](CC[C@]3(CNc4ccccc4)O[C@H](C4=CCOC4=O)C[C@H]32)[C@]1(C)CO[Si](c1ccccc1)(c1ccccc1)C(C)(C)C | > 50 | 45.3 | 9.32 | > 50 | > 50 | > 50 |
| COc1ccc(NC[C@]23CC[C@@H]4[C@](C)(CO[Si](C(C)C)(C(C)C)C(C)C)[C@H](OC(C)=O)CC[C@@]4(C)[C@@H]2C[C@@H](C2=CCOC2=O)O3)cc1OC | 5.24 | 4.98 | 4.61 | 6.08 | 17.9 | 4.7 |
| CC(=O)O[C@@H]1CC[C@]2(C)[C@H](CC[C@]3(CNc4ccccc4F)O[C@H](C4=CCOC4=O)C[C@H]32)[C@]1(C)COC(c1ccccc1)(c1ccccc1)c1ccccc1 | > 50 | > 50 | > 50 | > 50 | > 50 | > 50 |
| COc1ccc(NC[C@]23CC[C@@H]4[C@](C)(COC(c5ccccc5)(c5ccccc5)c5ccccc5)[C@H](OC(C)=O)CC[C@@]4(C)[C@@H]2C[C@@H](C2=CCOC2=O)O3)cc1OC | > 50 | 30.5 | 6.51 | > 50 | > 50 | 23.1 |
| CC(=O)OC[C@@]1(C)[C@H]2CC[C@]3(CNc4ccccc4)O[C@H](C4=CCOC4=O)C[C@H]3[C@]2(C)CC[C@H]1OC(C)=O | 25.7 | 40 | > 50 | > 50 | > 50 | > 50 |
| CC(=O)O[C@@H]1CC[C@]2(C)[C@H](CC[C@]3(CNc4cccc(F)c4)O[C@H](C4=CCOC4=O)C[C@H]32)[C@]1(C)CO[Si](C(C)C)(C(C)C)C(C)C | 30.1 | 7.95 | 6.91 | 24.5 | 32.9 | 12.7 |
| CC(=O)O[C@@H]1CC[C@]2(C)[C@H](CC[C@]3(CNc4cccc(F)c4)O[C@H](C4=CCOC4=O)C[C@H]32)[C@]1(C)CO[Si](c1ccccc1)(c1ccccc1)C(C)(C)C | > 50 | > 50 | 44.8 | > 50 | > 50 | > 50 |
| COc1ccc(NC[C@]23CC[C@@H]4[C@](C)(CO[Si](C)(C)C(C)(C)C)[C@H](OC(C)=O)CC[C@@]4(C)[C@@H]2C[C@@H](C2=CCOC2=O)O3)cc1OC | 6.16 | 5.49 | 5.13 | 5.3 | 11.5 | 5.4 |
| CC(=O)O[C@@H]1CC[C@]2(C)[C@H](CC[C@]3(CNc4ccccc4F)O[C@H](C4=CCOC4=O)C[C@H]32)[C@]1(C)CO[Si](c1ccccc1)(c1ccccc1)C(C)(C)C | > 50 | > 50 | 39.7 | > 50 | > 50 | > 50 |
| CC(=O)O[C@@H]1CC[C@]2(C)[C@H](CC[C@]3(CNc4ccccc4)O[C@H](C4=CCOC4=O)C[C@H]32)[C@]1(C)CO[Si](C)(C)C(C)(C)C | 8.5 | 5.19 | 5.94 | 7.8 | 21.2 | 5.44 |
| CC(=O)O[C@@H]1CC[C@]2(C)[C@H](CC[C@]3(CNc4ccc(Br)cc4)O[C@H](C4=CCOC4=O)C[C@H]32)[C@]1(C)CO[Si](C(C)C)(C(C)C)C(C)C | > 50 | 40.5 | 29.7 | > 50 | > 50 | > 50 |
| CC(=O)O[C@@H]1CC[C@]2(C)[C@H](CC[C@]3(CNc4ccccc4F)O[C@H](C4=CCOC4=O)C[C@H]32)[C@]1(C)CO[Si](C)(C)C(C)(C)C | 5.59 | 4.56 | 3.33 | 6.1 | 6.49 | 4.45 |
| CC(=O)OC[C@@]1(C)[C@H]2CC[C@]3(CNc4ccc(Br)cc4)O[C@H](C4=CCOC4=O)C[C@H]3[C@]2(C)CC[C@H]1OC(C)=O | 6.09 | 7.47 | 8.4 | 6.14 | 21.1 | 6.93 |
| C=C1CC[C@@H]2[C@](C)(CO)[C@H](O)CC[C@@]2(C)[C@@H]1C/C=C1/C(=O)OC[C@H]1O [ANDROGRAPHOLIDE] | 9.34 | 2.25 | 16.2 | 27.9 | 27.4 | 15.4 |
| Cc1c2ccncc2c(C)c2c1[nH]c1ccccc12 [ELLIPTECINE] | 2.06 | 1.34 | 2.17 | 1.2 | 1.87 | 1.53 |
